Test results as given in US9707249B2, “Trehalulose-containing composition, its preparation and use” (SÜDZUCKER AKTIENGESELLSCHAFT MANNHEIM/OCHSENFURT, priority 2009, dated 2017).

How the values were obtained:
[1] = Blood insulin response (insulinemic index, II) after consumption, randomized cross over analysis; type: in vivo, human; settings: ten healthy subjects, 25 g carbohydrate and 250 ml water, 0 to 180 minutes
Method: (§1) The effect of trehalulose on the blood glucose response (glycemic index, GI) and the insulin response (insulinemic index, II) was examined in comparison to isomaltulose. The analysis was done as a randomized cross over analysis on ten healthy subjects of both sex. Blood glucose- and insulin-profiles were taken after consumption of isomaltulose or trehalulose (each 25 g carbohydrate and 250 ml water) for an interval of 0 to 180 minutes at the following time points 0, 15, 30, 45, 60, 90, 120, 150 and 180 minutes.

[2] = Blood glucose response (glycemic index, GI) after consumption, randomized cross over analysis; type: in vivo, human; settings: ten healthy subjects, 25 g carbohydrate and 250 ml water, 0 to 180 minutes, compared to isomaltulose
Method: as §1

[3] = Stability of trehalulose during preparation (cooking) of jellies; type: physicochemical; settings: when cooking the jellies
Method: In the following, four recipes for jellies using as sweeteners a mixture of sucrose and glucose and four recipes using the trehalulose-containing composition, that means vitalose, of the present invention are prepared. The jellies prepared were tested comparatively in storage and TPA-analysis.
In all of the jelly recipes the conventional sweetener combination of sucrose and glucose could be successfully replaced by the trehalulose-containing composition, that means vitalose, of the present invention. The preparation using the trehalulose-containing composition, that means vitalose, was exactly as for the sucrose/glucose compositions.

SMILES | insulin response (II), blood insulin level [1] | blood glucose response (GI), blood glucose level [2] | degradation during preparation [3]
O=C(CO)[C@@H](O)[C@H](O)[C@H](O)CO[C@H]1O[C@H](CO)[C@@H](O)[C@H](O)[C@H]1O [isomaltulose, 6-O-α-D-glucopyranosyl-D-fructose, reference compound] | in parallel to the blood glucose response |  | 
O=C(CO[C@H]1O[C@H](CO)[C@@H](O)[C@H](O)[C@H]1O)[C@@H](O)[C@H](O)[C@H](O)CO [trehalulose, 1-O-α-D-glucopyranosyl-D-fructose] | significantly lower insulin response (II) than isomaltulose | increased and longer sustaining supply of glucose | no degradation of trehalulose was observed
